Legend:
Full length Human HDAC6 = Full length Human HDAC6 (Homo sapiens (Human), UniProt Q9UBN7); assay: Caliper endpoint assay for HDAC enzymatic activity (HDAC6); assay type: biochemical; details: for IC50: in vitro enzymatic, 30 min pre-incubation, 1 μM FAM-RHKK(Ac)-NH2 substrate; for Selectivity (6 v 8) (fold): ratio of HDAC8 IC50/HDAC6 IC50
Full length Human HDAC8 = Full length Human HDAC8 (Homo sapiens (Human), UniProt Q9BY41); assay: Caliper endpoint assay for HDAC enzymatic activity (HDAC8); assay type: biochemical; details: in vitro enzymatic, 30 min pre-incubation, 1 μM FAM-RHKK(TFAc)-NH2 substrate
Chain of Full length Human HDAC8 (Q9BY41 whole entry): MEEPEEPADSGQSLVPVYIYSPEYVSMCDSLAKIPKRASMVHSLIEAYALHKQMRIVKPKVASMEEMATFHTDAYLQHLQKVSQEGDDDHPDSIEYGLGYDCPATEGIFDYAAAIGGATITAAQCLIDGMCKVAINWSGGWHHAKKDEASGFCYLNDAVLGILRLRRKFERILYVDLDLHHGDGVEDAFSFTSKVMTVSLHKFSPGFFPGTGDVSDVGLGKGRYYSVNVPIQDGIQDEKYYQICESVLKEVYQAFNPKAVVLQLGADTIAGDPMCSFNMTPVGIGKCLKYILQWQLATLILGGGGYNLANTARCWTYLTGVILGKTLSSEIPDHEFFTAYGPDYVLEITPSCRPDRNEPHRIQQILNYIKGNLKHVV

Chain of Full length Human HDAC6 (Q9UBN7 whole entry): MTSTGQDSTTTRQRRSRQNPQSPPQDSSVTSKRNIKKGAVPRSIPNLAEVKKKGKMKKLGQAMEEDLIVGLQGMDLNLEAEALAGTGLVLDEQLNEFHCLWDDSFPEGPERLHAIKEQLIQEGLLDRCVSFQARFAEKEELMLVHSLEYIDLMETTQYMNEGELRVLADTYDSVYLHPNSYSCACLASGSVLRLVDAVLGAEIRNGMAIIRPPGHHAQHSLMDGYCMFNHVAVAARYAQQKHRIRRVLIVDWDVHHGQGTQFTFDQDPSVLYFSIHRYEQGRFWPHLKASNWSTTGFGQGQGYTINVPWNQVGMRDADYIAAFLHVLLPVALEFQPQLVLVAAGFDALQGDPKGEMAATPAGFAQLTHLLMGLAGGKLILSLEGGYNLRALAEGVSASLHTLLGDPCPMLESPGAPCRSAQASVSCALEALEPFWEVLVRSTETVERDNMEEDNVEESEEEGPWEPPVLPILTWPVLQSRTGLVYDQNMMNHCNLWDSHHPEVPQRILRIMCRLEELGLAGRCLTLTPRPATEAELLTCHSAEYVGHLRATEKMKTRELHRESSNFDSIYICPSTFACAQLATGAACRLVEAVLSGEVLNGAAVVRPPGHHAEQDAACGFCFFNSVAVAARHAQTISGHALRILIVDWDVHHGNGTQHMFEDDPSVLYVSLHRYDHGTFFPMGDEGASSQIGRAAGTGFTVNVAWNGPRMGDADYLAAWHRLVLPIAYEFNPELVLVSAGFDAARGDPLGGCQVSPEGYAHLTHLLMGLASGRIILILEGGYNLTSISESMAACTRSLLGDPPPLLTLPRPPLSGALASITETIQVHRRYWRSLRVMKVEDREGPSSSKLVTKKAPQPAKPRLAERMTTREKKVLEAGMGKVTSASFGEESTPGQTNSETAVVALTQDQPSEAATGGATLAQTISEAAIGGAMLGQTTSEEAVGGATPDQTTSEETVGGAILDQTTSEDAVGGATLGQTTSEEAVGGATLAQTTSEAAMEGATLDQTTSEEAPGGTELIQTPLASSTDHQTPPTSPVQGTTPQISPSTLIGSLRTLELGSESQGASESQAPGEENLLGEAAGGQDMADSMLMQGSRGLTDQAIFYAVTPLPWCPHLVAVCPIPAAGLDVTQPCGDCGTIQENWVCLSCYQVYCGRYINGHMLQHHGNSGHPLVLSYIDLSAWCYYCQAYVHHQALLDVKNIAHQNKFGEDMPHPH

IC50 (Full length Human HDAC6) [µM]	Selectivity (6 v 8) (fold) (Full length Human HDAC6)	IC50 (Full length Human HDAC8) [µM]	Compound
0.1 to 1	IV (IV: >100-1000)	10 to 100	O=C(NO)c1cnc2c(c1)CCN([C@H]1C[C@@]3(CCOC3)C1)C2 [Compound 188, N-hydroxy-7-((2r,4r)-6-oxaspiro[3.4]octan-2-yl)-5,6,7,8-tetrahydro-1,7-naphthyridine-3-carboxamide]
> 100	II (II: >1-10)	> 100	O=C(NO)c1ncc2c(n1)CCN(C1CC3(CCCCC3)C1)C2 [FFF, N-hydroxy-6-(spiro[3.5]nonan-2-yl)-5,6,7,8-tetrahydropyrido[4,3-d]pyrimidine-2-carboxamide]
0.001 to 0.1	IV (IV: >100-1000)	1 to 10	O=C(NO)c1cnc2c(c1)CCN(C1CC3(CCCC3)C1)C2 [Compound 183, N-hydroxy-7-(spiro[3.4]octan-2-yl)-5,6,7,8-tetrahydro-1,7-naphthyridine-3-carboxamide]
0.1 to 1	III (III: >10-100)	1 to 10	O=C(NO)c1cnc2c(c1)CCN(C1CC3(CCOCC3)C1)C2 [Compound 179, N-hydroxy-7-(7-oxaspiro[3.5]nonan-2-yl)-5,6,7,8-tetrahydro-1,7-naphthyridine-3-carboxamide]
0.1 to 1	III (III: >10-100)	10 to 100	CC(=O)N1CCC2(CC1)CC(N1CCc3cc(C(=O)NO)cnc3C1)C2 [Compound 199, 7-(7-acetyl-7-azaspiro[3.5]nonan-2-yl)-N-hydroxy-5,6,7,8-tetrahydro-1,7-naphthyridine-3-carboxamide]
0.1 to 1	III (III: >10-100)	1 to 10	CN1CCC2(CC1)CC(N1CCc3cc(C(=O)NO)cnc3C1)C2 [Compound 198, N-hydroxy-7-(7-methyl-7-azaspiro[3.5]nonan-2-yl)-5,6,7,8-tetrahydro-1,7-naphthyridine-3-carboxamide]
0.001 to 0.1	IV (IV: >100-1000)	1 to 10	O=C(NO)c1cnc2c(c1)CCN([C@H]1CCCC3(CCC3)C1)C2 (single isomer, unassigned) [Compound 195]
1 to 10	III (III: >10-100)	10 to 100	O=C(NO)c1cc2c(cn1)CN(C1CC3(CCCCC3)C1)CC2 [DDD]
0.1 to 1	V (V: >1000)	> 100	O=C(NO)c1ccc2c(n1)CCN(C1CC3(CCCCC3)C1)C2 [EEE]
0.001 to 0.1	IV (IV: >100-1000)	1 to 10	O=C(NO)c1cnc2c(c1)CCN(C1CCC3(CCC3)CC1)C2 [Compound 192, N-hydroxy-7-(spiro[3.5]nonan-7-yl)-5,6,7,8-tetrahydro-1,7-naphthyridine-3-carboxamide]
0.1 to 1	III (III: >10-100)	10 to 100	O=C(NO)c1cnc2c(c1)CCN([C@@H]1CCCC3(CCC3)C1)C2 (single isomer, unassigned) [Compound 194]
0.1 to 1	III (III: >10-100)	10 to 100	O=C(NO)c1cnc2c(c1)CCN(C1CC3(CCNCC3)C1)C2 [Compound 197, N-hydroxy-7-(7-azaspiro[3.5]nonan-2-yl)-5,6,7,8-tetrahydro-1,7-naphthyridine-3-carboxamide]
0.001 to 0.1	IV (IV: >100-1000)	10 to 100	O=C(NO)c1cnc2c(c1)CCN([C@H]1CCC3(CCC3)C1)C2 (single isomer, unassigned) [Compound 383]
0.001 to 0.1	IV (IV: >100-1000)	10 to 100	O=C(NO)c1cnc2c(c1)CCN(CC13CC4CC(CC(C4)O1)C3)C2 [Compound 14]
0.1 to 1	III (III: >10-100)	1 to 10	CN1CCC2(CCC(N3CCc4cc(C(=O)NO)cnc4C3)C2)CC1 (centres unmarked) [Compound 417]
0.001 to 0.1	IV (IV: >100-1000)	10 to 100	O=C(NO)c1cnc2c(c1)CCN(C1CC3(CCCCC3)C1)C2 [Compound 16, N-hydroxy-7-(spiro[3.5]nonan-2-yl)-5,6,7,8-tetrahydro-1,7-naphthyridine-3-carboxamide]
0.1 to 1	IV (IV: >100-1000)	10 to 100	O=C(NO)c1cnc2c(c1)CCN([C@H]1C[C@]3(CCOC3)C1)C2 [Compound 189, N-hydroxy-7-((2s,4s)-6-oxaspiro[3.4]octan-2-yl)-5,6,7,8-tetrahydro-1,7-naphthyridine-3-carboxamide]

Compound	IC50 (Full length Human HDAC6) [µM]	Selectivity (6 v 8) (fold) (Full length Human HDAC6)	IC50 (Full length Human HDAC8) [µM]
CN1CCC[C@]2(C1)C[C@@H](N1CCc3cc(C(=O)NO)cnc3C1)C2 (single isomer, unassigned) [Compound 343]	0.1 to 1	III (III: >10-100)	1 to 10
O=C(NO)c1cnc2c(c1)CCN(C1CC3(CCCNC3)C1)C2 (single isomer, unassigned) [Compound 341]			10 to 100
CN1CCC[C@]2(C1)C[C@H](N1CCc3cc(C(=O)NO)cnc3C1)C2 (single isomer, unassigned) [Compound 344]	0.1 to 1	III (III: >10-100)	1 to 10
O=C(NO)c1cnc2c(c1)CCN(C1CC3(CNC3)C1)C2 [Compound 289]	0.1 to 1	III (III: >10-100)	10 to 100
O=C(NO)c1cnc2c(c1)CCN(C1CC3(CCCNC3)C1)C2 (single isomer, unassigned) [Compound 342]			10 to 100
